The test system of one data set is Mtb H37Ra^lux. Nature of the data set: microbe, parasite or virus in culture. Type of data set: cell-based, Mycobacterium tuberculosis. The conditions noted are these: for IC50: read-out: Mtb H37Ra^lux IC50; for MIC: read-out: Mtb H37Ra^lux IC90 (MIC).
The nature of the next data set: in vitro. The conditions noted are these: human.
Where [1] appears, read: Mycobacterium tuberculosis, H37RA, 168 h.

Values after ≈ are worked out from the molar mass of the structure shown. Like-named read-outs stand apart in the source and are kept apart here. Some results are limits rather than exact numbers.

As usually defined, the IC50 is the midpoint of a concentration-inhibition curve.

As for `NNC(=O)c1ccncc1` [INH, isoniazid, reference compound], in the data set on Mtb H37Ra^lux (setting [1]), the half-maximal inhibitory concentration (IC50) came to 0.04 µM and the MIC amounted to 0.09 µM (≈ 0.0123 µg/mL). The like results for `CCCCc1cn(CCN2CCN(C(=O)c3c(C)nc4sccn34)CC2)nn1` [IT01, (4-(2-(4-Butyl-1H-1,2,3-triazol-1-yl)-ethyl)-piperazin-1-yl)(6-methylimidazo-[2,1-b]-thiazol-5-yl)-methanone] were, in that order, 6.12 µM and 52 µM (≈ 20.9 µg/mL).

In the case of `Cc1nc2sccn2c1C(=O)N1CCN(CCn2cc(COc3ccc(Cl)cn3)nn2)CC1` [IT05, (4-(2-(4-(((5-Chloropyridin-2-yl)-oxy)-methyl)-1H-1,2,3-triazol-1-yl)ethyl)-piperazin-1-yl)(6-methylimidazo-[2,1-b]-thiazol-5-yl)-methanone], in the data set with Mtb H37Ra^lux (setting [1]), the IC50 is 49.6 µM and the MIC is more than 128 µM. The like results for `Cc1nc2sc3ccccc3n2c1C(=O)N1CCN(Cc2cn(-c3ccc(Cl)cc3Cl)nn2)CC1` [IT06, (4-((1-(2,4-Dichlorophenyl)-1H-1,2,3-triazol-4-yl)-methyl)-piperazin-1-yl)(2-methylbenzo-[d]-imidazo-[2,1-b]-thiazol-3-yl)-methanone] were, in that order, 2.03 µM and 15.2 µM (≈ 8.01 µg/mL). In the same order, the values of `COc1cccc(-n2cc(CN3CCN(C(=O)c4c(C)nc5sc6ccccc6n45)CC3)nn2)c1` [IT07, (4-((1-(3-Methoxyphenyl)-1H-1,2,3-triazol-4-yl)-methyl)-piperazin-1-yl)(2-methylbenzo-[d]-imidazo-[2,1-b]-thiazol-3-yl)-methanone] are 7.27 µM and 15.4 µM (≈ 7.49 µg/mL). Take `CCCCc1cn(CCN2CCN(C(=O)c3c(C)nc4sc5ccccc5n34)CC2)nn1` [IT12, (4-(2-(4-Butyl-1H-1,2,3-triazol-1-yl)-ethyl)-piperazin-1-yl)(2-methylbenzo-[d]-imidazo-[2,1-b]-thiazol-3-yl)-methanone]: in the data set with Mtb H37Ra^lux (setting [1]), the 50% inhibitory concentration (IC50) turned out to be 43.7 µM and the MIC turned out to be 62.8 µM (≈ 28.3 µg/mL). The like results for `CCCCCCCCCc1cn(CCN2CCN(C(=O)c3c(C)nc4sc5ccccc5n34)CC2)nn1` [IT14, (2-methylbenzo-[d]-imidazo-[2,1-b]-thiazol-3-yl)(4-(2-(4-nonyl-1H-1,2,3-triazol-1-yl)-ethyl)-piperazin-1-yl)-methanone] were, in that order, 13.1 µM and 28 µM (≈ 14.6 µg/mL). On to `Cc1nc2sc3ccccc3n2c1C(=O)N1CCN(CCn2cc(-c3ccccc3)nn2)CC1` [IT15, (2-Methylbenzo-[d]-imidazo-[2,1-b]-thiazol-3-yl)(4-(2-(4-phenyl-1H-1,2,3-triazol-1-yl)-ethyl)-piperazin-1-yl)-methanone], for which, in the data set on Mtb H37Ra^lux (setting [1]), the IC50 worked out at 12.2 µM and the MIC was 27.2 µM (≈ 12.8 µg/mL). As to `Cc1nc2sc3ccccc3n2c1C(=O)N1CCN(CCn2cc(C3CC3)nn2)CC1` [IT18, (4-(2-(4-Cyclopropyl-1H-1,2,3-triazol-1-yl)-ethyl)-piperazin-1-yl)(2-methylbenzo-[d]-imidazo-[2,1-b]-thiazol-3-yl)-methanone], in the data set with Mtb H37Ra^lux (setting [1]), the IC50 amounted to 29.1 µM and the MIC was found to be 63.8 µM (≈ 27.8 µg/mL).

As to `Cc1nc2sccn2c1C(=O)N1CCN(CCn2cc(C3CC3)nn2)CC1` [IT19, (4-(2-(4-Cyclopropyl-1H-1,2,3-triazol-1-yl)-ethyl)-piperazin-1-yl)(6-methylimidazo-[2,1-b]-thiazol-5-yl)-methanone], in the data set on Mtb H37Ra^lux (setting [1]), the IC50 is more than 128 µM and the MIC is more than 128 µM. `Cc1nc2sccn2c1C(=O)N1CCN(CCn2cc(-c3ccccc3)nn2)CC1` [IT20, (6-Methylimidazo-[2,1-b]-thiazol-5-yl)(4-(2-(4-phenyl-1H-1,2,3-triazol-1-yl)-ethyl)-piperazin-1-yl)-methanone]: in the data set on Mtb H37Ra^lux (setting [1]), the IC50 amounted to 20.6 µM and the MIC amounted to 54.9 µM (≈ 23.2 µg/mL). Consider `Cc1nc2sccn2c1C(=O)N1CCN(Cc2cn(-c3ccc(Br)cc3)nn2)CC1` [IT21, (4-((1-(4-Bromophenyl)-1H-1,2,3-triazol-4-yl)-methyl)-piperazin-1-yl)(6-methylimidazo-[2,1-b]-thiazol-5-yl)-methanone], for which, in the data set on Mtb H37Ra^lux (setting [1]), the IC50 came out at 20.7 µM and the MIC came to 53 µM (≈ 25.8 µg/mL). The like results for `Cc1nc2sccn2c1C(=O)N1CCN(Cc2cn(-c3ccc(F)c(Cl)c3)nn2)CC1` [IT22, (4-((1-(3-Chloro-4-fluorophenyl)-1H-1,2,3-triazol-4-yl)-methyl)-piperazin-1-yl)(6-methylimidazo-[2,1-b]-thiazol-5-yl)-methanone] were, in that order, 5.28 µM and 57.8 µM (≈ 26.6 µg/mL).

Regarding `Cc1nc2sccn2c1C(=O)N1CCN(Cc2cn(-c3cccc([N+](=O)[O-])c3)nn2)CC1` [IT23, (6-Methylimidazo-[2,1-b]-thiazol-5-yl)(4-((1-(3-nitrophenyl)-1H-1,2,3-triazol-4-yl)-methyl)-piperazin-1-yl)-methanone], in the data set with Mtb H37Ra^lux (setting [1]), the IC50 is 43.8 µM and the MIC worked out at 84.8 µM (≈ 38.4 µg/mL). On to `Cc1ccc(-n2cc(CN3CCN(C(=O)c4c(C)nc5sccn45)CC3)nn2)cc1C` [IT24, (4-((1-(3,4-Dimethylphenyl)-1H-1,2,3-triazol-4-yl)-methyl)-piperazin-1-yl)(6-methylimidazo-[2,1-b]-thiazol-5-yl)-methanone], for which, in the data set on Mtb H37Ra^lux (setting [1]), the IC50 turned out to be 19.8 µM and the MIC was 48.8 µM (≈ 21.2 µg/mL).

For the compound `Cc1nc2sccn2c1C(=O)N1CCN(Cc2cn(-c3ccc([N+](=O)[O-])cc3)nn2)CC1` [IT25, (6-Methylimidazo-[2,1-b]-thiazol-5-yl)(4-((1-(4-nitrophenyl)-1H-1,2,3-triazol-4-yl)-methyl)-piperazin-1-yl)-methanone], in the data set on Mtb H37Ra^lux (setting [1]), the IC50 worked out at 23.1 µM and the MIC stood at 51.4 µM (≈ 23.2 µg/mL). The like results for `Cc1nc2sccn2c1C(=O)N1CCN(Cc2cn(-c3ccccc3Cl)nn2)CC1` [IT26, (4-((1-(2-Chlorophenyl)-1H-1,2,3-triazol-4-yl)-methyl)-piperazin-1-yl)(6-methylimidazo-[2,1-b]-thiazol-5-yl)-methanone] were, in that order, 30.2 µM and 62.1 µM (≈ 27.5 µg/mL). Regarding `COc1cccc(-n2cc(CN3CCN(C(=O)c4c(C)nc5sccn45)CC3)nn2)c1` [IT27, (4-((1-(3-Methoxyphenyl)-1H-1,2,3-triazol-4-yl)-methyl)-piperazin-1-yl)(6-methylimidazo-[2,1-b]-thiazol-5-yl)-methanone], in the data set with Mtb H37Ra^lux (setting [1]), the IC50 is 46 µM and the MIC worked out at 98.1 µM (≈ 42.9 µg/mL). For the compound `CC/C(=C(\c1ccccc1)c1ccc(OCCN(C)C)cc1)c1ccccc1` [Tamoxifen, reference compound], the CC50 in the data set “in vitro” worked out at 12.4 µM. For “(4-(2-(4-((5-Chloropyridin-2-yl)oxy)-1H-1,2,3-triazol-1-yl)-ethyl)-piperazin-1-yl)(2-methylbenzo-[d]-imidazo-[2,1-b]-thiazol-3-yl)-methanone [IT17]”, in the data set with Mtb H37Ra^lux, the “Mtb H37Ra^lux IC90 (MIC)” value is 115.57 µM and the concentration for half-maximal inhibition (IC50) came to 19.7 µM.

The record behind these values is publication PMC9364363 (RSC Advances, 2022).
